Data taken from ChEMBL document CHEMBL1201862, “PubChem BioAssay data set” (2004).
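Following 48 hours of exposure in 96-well plates, responses at five concentrations were used to interpolate endpoints linearly. The concentration for 50% growth inhibition is given as GI50.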 Active and inactive are the calls of the source. Rule as the data show it: active = GI50 up to about 1.1 µM and inactive = higher.

Experiments:
Experiment in all cases: DTP human tumour cell line panel, 48 h
[1] = test system: NCI/ADR-RES
[2] = test system: HL-60
[3] = test system: T47D
[4] = test system: LOX IMVI
[5] = test system: COLO 205
[6] = test system: OVCAR-3
[7] = test system: IGROV-1
[8] = test system: SK-MEL-2
[9] = test system: ACHN
[10] = test system: NCI-H460
[11] = test system: TK-10
[12] = test system: SF-268
[13] = test system: A498
[14] = test system: Hs-578T
[15] = test system: HCT-15
[16] = test system: UACC-62
[17] = test system: UACC-257
[18] = test system: BT-549
[19] = test system: OVCAR-5

| Compound | GI50 [1] | GI50 [2] | GI50 [3] | GI50 [4] | GI50 [5] | GI50 [6] | GI50 [7] | GI50 [8] | GI50 [9] | GI50 [10] | GI50 [11] | GI50 [12] | GI50 [13] | GI50 [14] | GI50 [15] [µM] | GI50 [16] | GI50 [17] | GI50 [18] | GI50 [19] |
| --- | --- | --- | --- | --- | --- | --- | --- | --- | --- | --- | --- | --- | --- | --- | --- | --- | --- | --- | --- |
| CC(O)CC(O)(C(F)(F)F)C(F)(F)F (stereo unspecified) | > 10 µM (inactive) | > 10 µM (inactive) | > 10 µM (inactive) | > 10 µM (inactive) | > 10 µM (inactive) | > 10 µM (inactive) | > 10 µM (inactive) | > 10 µM (inactive) | > 10 µM (inactive) | > 10 µM (inactive) | > 10 µM (inactive) | > 10 µM (inactive) | > 10 µM (inactive) | > 10 µM (inactive) | > 10 | > 10 µM (inactive) | > 10 µM (inactive) | – | – |
| N#C/C(=C/NC(=S)c1ccncc1)C(N)=O | > 100 µM (inactive) | > 100 µM (inactive) | > 100 µM (inactive) | > 100 µM (inactive) | > 100 µM (inactive) | > 100 µM (inactive) | > 100 µM (inactive) | > 100 µM (inactive) | > 100 µM (inactive) | > 100 µM (inactive) | > 100 µM (inactive) | > 100 µM (inactive) | > 100 µM (inactive) | – | > 100 | > 100 µM (inactive) | > 100 µM (inactive) | > 100 µM (inactive) | > 100 µM (inactive) |
| Cc1ccc(S(=O)(=O)NNC(=O)c2cc(C)ccc2NC(=O)C23CC4CC(CC(C4)C2)C3)cc1 | 38.5 µM (inactive) | 66.8 µM (inactive) | 22.2 µM (inactive) | > 100 µM (inactive) | > 100 µM (inactive) | 34.4 µM (inactive) | 12.6 µM (inactive) | – | 21.1 µM (inactive) | 43.8 µM (inactive) | 41.8 µM (inactive) | 41.7 µM (inactive) | – | 32.9 µM (inactive) | 22.7 | 39.7 µM (inactive) | 25.4 µM (inactive) | > 100 µM (inactive) | > 100 µM (inactive) |
| CC(=O)OCC1OC(c2nc3ccccc3s2)=CC(OC(C)=O)C1OC(C)=O (stereo unspecified) | > 100 µM (inactive) | 22.3 µM (inactive) | – | > 100 µM (inactive) | > 100 µM (inactive) | > 100 µM (inactive) | > 100 µM (inactive) | – | > 100 µM (inactive) | > 100 µM (inactive) | > 100 µM (inactive) | 43.6 µM (inactive) | > 100 µM (inactive) | > 100 µM (inactive) | – | – | > 100 µM (inactive) | > 100 µM (inactive) | > 100 µM (inactive) |
| COC(=O)c1cc(C#N)[nH]c1-c1ccc(C)s1 | 31.1 µM (inactive) | – | 25.6 µM (inactive) | – | 64.3 µM (inactive) | 26.9 µM (inactive) | – | – | 41.3 µM (inactive) | 82.2 µM (inactive) | – | 42.2 µM (inactive) | 26.9 µM (inactive) | – | 41.6 | 51.3 µM (inactive) | 64.7 µM (inactive) | 30.5 µM (inactive) | 47.5 µM (inactive) |
| CC(C)(CO)CNc1nc(N)nc(Cl)c1N | > 100 µM (inactive) | – | 58.5 µM (inactive) | > 100 µM (inactive) | > 100 µM (inactive) | > 100 µM (inactive) | > 100 µM (inactive) | > 100 µM (inactive) | > 100 µM (inactive) | > 100 µM (inactive) | > 100 µM (inactive) | > 100 µM (inactive) | – | > 100 µM (inactive) | > 100 | > 100 µM (inactive) | 42.9 µM (inactive) | > 100 µM (inactive) | > 100 µM (inactive) |
| CC(C)CCCC(C)[C@H]1CCC2[C@@H]3CCC4Cc5nc6c(nc5C[C@]4(C)C3CC[C@@]21C)CC1CC[C@@H]2C(C[C@@H](O)[C@@]3(C)C2C[C@@H]2OC4(CCC(C)CO4)C(C)[C@@H]23)[C@@]1(C)C6 (stereo partly specified) | > 100 µM (inactive) | > 100 µM (inactive) | > 100 µM (inactive) | – | > 100 µM (inactive) | > 100 µM (inactive) | > 100 µM (inactive) | – | > 100 µM (inactive) | > 100 µM (inactive) | > 100 µM (inactive) | > 100 µM (inactive) | – | > 100 µM (inactive) | > 100 | > 100 µM (inactive) | > 100 µM (inactive) | > 100 µM (inactive) | > 100 µM (inactive) |
| CC(=O)/C(=C/N1C(=O)CC(=O)NC1=S)C(=O)Nc1ccccc1C | 39.7 µM (inactive) | 49 µM (inactive) | 81.3 µM (inactive) | > 100 µM (inactive) | > 100 µM (inactive) | 36.1 µM (inactive) | 91 µM (inactive) | > 100 µM (inactive) | 58.9 µM (inactive) | 39.2 µM (inactive) | > 100 µM (inactive) | 35.1 µM (inactive) | 28.1 µM (inactive) | – | 42.5 | 24.3 µM (inactive) | 80.5 µM (inactive) | > 100 µM (inactive) | > 100 µM (inactive) |
